Consider 38 molecules from patent US20060004028A1, “Novel PARP inhibitor” (MOCHIDA PHARMACEUTICAL CO., LTD., priority 2002, published 2006).

SMILES strings stand for the structures.

As for `O=C1CCN2c3c1cccc3C(=O)NC2c1cccnc1` (centres unmarked), the melting point was 190 to 191.6 °C.
In the case of `COc1ccc(C2NC(=O)c3cccc4c3N2CCC4=O)cc1` (centres unmarked) [Example 1, 3-(4-methoxyphenyl)-6,7-dihydro-3H,5H-pyrido[3,2,1-ij]quinazoline-1,7(2H)-dione], the melting point was 137.4 to 144.2 °C.
The same measure for `COc1ccc(C2NC(=O)c3cccc4c3N2CCC4O)cc1` (centres unmarked) [Example 2, 7-hydroxy-3-(4-methoxyphenyl)-6,7-dihydro-3H,5H-pyrido[3,2,1-ij]quinazoline-1(2H)-one]: 95.7 to 99.6 °C.
`COc1ccc(C2NC(=O)c3cccc4c3N2CCC4=NO)cc1` (centres unmarked) [Example 3, 7-hydroxyimino-3-(4-methoxyphenyl)-6,7-dihydro-3H,5H-pyrido[3,2,1-ij]quinazoline-1(2H)] displayed a melting point of 200.8 to 211.9 °C.
The same measure for `COc1ccc([C@H]2NC(=O)c3cccc4c3N2CC[C@@H]4N)cc1` [Example 6, (−)-(3S,7S)-7-amino-3-(4-methoxyphenyl)-6,7-dihydro-3H,5H-pyrido[3,2,1-ij]quinazoline-1(2H)-one]: 110 to 112.7 °C; for `COc1ccc([C@@H]2NC(=O)c3cccc4c3N2CC[C@H]4N)cc1` [Example 7, (+)-(3R,7R)-7-amino-3-(4-methoxyphenyl)-6,7-dihydro-3H,5H-pyrido-[3,2,1-ij]quinazoline-1(2H)-one]: 110 to 112.7 °C.
The same measure for `COc1ccc(C2NC(=O)c3cccc4c3N2CCC4=O)cc1[N+](=O)[O-]` (centres unmarked) [Example 10, 3-(4-methoxy-3-nitrophenyl)-6,7-dihydro-1H,5H-pyrido[3,2,1-ij]quinazoline-1,7-(2H)-dione]: 275.4 to 277.1 °C; for `COc1ccc(C2NC(=O)c3cccc4c3N2CCC4NCc2ccc(N(C)C)cc2)cc1` (centres unmarked) [Example 13, 7-(4-N,N-dimethylaminophenyl)methylamino-3-(4-methoxyphenyl)-6,7-dihydro-3H,5H-pyrido[3,2,1-ij]quinazoline-1(2H)-one]: 73.2 to 75.6 °C; for `COc1ccc(C2NC(=O)c3cccc4c3N2CCNC4=O)cc1` (centres unmarked) [Example 14, 3-(4-methoxyphenyl)-5,6-dihydro-3H-pyrimido[5,6,1-jk][1,4]benzdiazepin-1,8(2H,7H)-dione]: 279.9 °C (dec.).
The figure for `O=C1CCN2c3c1cccc3C(=O)NC2c1ccccc1` (centres unmarked) [Example 15, 3-(phenyl)-6,7-dihydro-3H,5H-pyrido[3,2,1-ij]quinazoline-1,7(2H)-dione] is 172.1 to 180.4 °C; for `N#Cc1ccc(C2NC(=O)c3cccc4c3N2CCC4=O)cc1` (centres unmarked) [Example 16, 3-(4-cyanophenyl)-6,7-dihydro-3H,5H-pyrido[3,2,1-ij]quinazoline-1,7(2H)-dione] it is 134 to 146.9 °C; for `Cc1ccc(C2NC(=O)c3cccc4c3N2CCC4=O)cc1` (centres unmarked) [Example 18, 3-(4-methylphenyl)-6,7-dihydro-3H,5H-pyrido[3,2,1-ij]quinazoline-1,7(2H)-dione] it is 172.1 to 175.8 °C.
Molecule `O=C1CCN2c3c1cccc3C(=O)NC2c1ccc(F)cc1` (centres unmarked) [Example 19, 3-(4-fluorophenyl)-6,7-dihydro-3H,5H-pyrido[3,2,1-ij]quinazoline-1,7(2H)-dione] returned a melting point of 216 to 224.8 °C.
As for `O=C1CCN2c3c1cccc3C(=O)NC2c1ccc(F)c(F)c1` (centres unmarked) [Example 20, 3-(3,4-difluorophenyl)-6,7-dihydro-3H,5H-pyrido[3,2,1-ij]quinazoline-1,7(2H)-dione], the melting point was in the range of 184 to 189.6 °C.
The figure for `O=C1CCN2c3c1cccc3C(=O)NC2c1ccc(Br)cc1` (centres unmarked) [Example 21, 3-(4-bromophenyl)-6,7-dihydro-3H,5H-pyrido[3,2,1-ij]quinazoline-1,7(2H)-dione] is 206.2 to 214 °C.
The molecule `O=C(O)c1ccc(C2NC(=O)c3cccc4c3N2CCC4=O)cc1` (centres unmarked) [Example 22, 3-(4-carboxyphenyl)-6,7-dihydro-3H,5H-pyrido[3,2,1-ij]quinazoline-1,7(2H)-dione] registered a melting point of 154.3 to 158.9 °C.
For the molecule `COc1ccc(C2NC(=O)c3cc(F)cc4c3N2CCC4=O)cc1` (centres unmarked) [Example 24, 9-fluoro-3-(4-methoxyphenyl)-6,7-dihydro-3H,5H-pyrido[3,2,1-ij]quinazoline-1,7(2H)-dione], the melting point was 164.7 to 166 °C.
The figure for `COc1ccc(C2NC(=O)c3ccc(Cl)c4c3N2CCC4=O)cc1` (centres unmarked) [Example 25, 8-chloro-3-(4-methoxyphenyl)-6,7-dihydro-3H,5H-pyrido[3,2,1-ij]quinazoline-1,7(2H)-dione] is 209.4 to 213.1 °C; for `CN(C)CCCOc1ccc(C2NC(=O)c3cccc4c3N2CCC4=O)cc1` (centres unmarked) [Example 26, 3-(4-(3-N,N-dimethylaminopropoxy)phenyl)-6,7-dihydro-3H,5H-pyrido[3,2,1-ij]quinazoline-1,7(2H)-dione] it is 174.3 to 178.2 °C; for `COc1ccc(C2NC(=O)c3cccc4c3N2CCC4=O)cc1Br` (centres unmarked) [Example 27, 3-(3-bromo-4-methoxyphenyl)-6,7-dihydro-3H,5H-pyrido[3,2,1-ij]quinazoline-1,7(2H)-dione] it is 212.8 to 215.7 °C.
The same measure for `COc1ccc(C2NC(=O)c3cccc4c3N2CCC4=O)cc1O` (centres unmarked) [Example 28, 3-(3-hydroxy-4-methoxyphenyl)-6,7-dihydro-3H,5H-pyrido[3,2,1-ij]quinazoline-1,7(2H)-dione]: 204.7 to 212.2 °C.
The same measure for `O=C1CCN2c3c1cccc3C(=O)NC2c1ccc(C(F)(F)F)cc1` (centres unmarked) [Example 35, 3-(4-trifluoromethylphenyl)-6,7-dihydro-3H,5H-pyrido[3,2,1-ij]quinazoline-1,7(2H)-dione]: 203.1 to 208 °C; for `COc1cc(C2NC(=O)c3cccc4c3N2CCC4=O)ccc1F` (centres unmarked) [Example 36, 3-(4-fluoro-3-methoxyphenyl)-6,7-dihydro-3H,5H-pyrido[3,2,1-ij]quinazoline-1,7(2H)-dione]: 171 to 172.9 °C.
Take `CC(C)Oc1ccc(C2NC(=O)c3cccc4c3N2CCC4=O)cc1` (centres unmarked) [Example 37, 3-(4-isopropoxyphenyl)-6,7-dihydro-3H,5H-pyrido[3,2,1-ij]quinazoline-1,7(2H)-dione]: the melting point fell in the range of 175.8 to 177.1 °C.
The figure for `COc1ccc(Cc2nc(=O)c3cccc4c3n2CCC4=O)cc1` [Example 41, 3-(4-methoxyphenyl)methyl-6,7-dihydro-5H-pyrido[3,2,1-ij]quinazoline-1,7-dione] is 81.4 to 82 °C; for `COc1ccc(C2NC(=O)c3cccc4c3N2CCC4=O)cc1Cl` (centres unmarked) [Example 42, 3-(3-chloro-4-methoxyphenyl)-6,7-dihydro-3H,5H-pyrido[3,2,1-ij]quinazoline-1,7(2H)-dione] it is 174.5 to 176.9 °C.
The figure for `COc1ccccc1C1NC(=O)c2cccc3c2N1CCC3=O` (centres unmarked) [Example 43, 3-(2-methoxyphenyl)-6,7-dihydro-3H,5H-pyrido[3,2,1-ij]quinazoline-1,7(2H)-dione] is 214.7 to 219.5 °C; for `COc1cccc(C2NC(=O)c3cccc4c3N2CCC4=O)c1` (centres unmarked) [Example 44, 3-(3-methoxyphenyl)-6,7-dihydro-3H,5H-pyrido[3,2,1-ij]quinazoline-1,7(2H)-dione] it is 126.5 to 142.5 °C; for `O=C1CCN2c3c1cccc3C(=O)NC2c1ccc(SC(F)(F)F)cc1` (centres unmarked) [Example 45, 3-(4-trifluoromethylthiophenyl)-6,7-dihydro-3H,5H-pyrido[3,2,1-ij]quinazoline-1,7(2H)-dione] it is 178.2 to 180.9 °C.
The figure for `O=C1CCN2c3c1cccc3C(=O)NC2c1ccsc1` (centres unmarked) [Example 46, 3-(3-thienyl)-6,7-dihydro-3H,5H-pyrido[3,2,1-ij]quinazoline-1,7(2H)-dione] is 190.9 to 193.4 °C; for `COc1ccc2cc(C3NC(=O)c4cccc5c4N3CCC5=O)ccc2c1` (centres unmarked) [Example 47, 3-(6-methoxynaphthalene-2-yl)-6,7-dihydro-3H,5H-pyrido[3,2,1-ij]quinazoline-1,7(2H)-dione] it is 191.4 to 195.5 °C; for `CN(C)c1ccc(C2NC(=O)c3cccc4c3N2CCC4=O)cc1` (centres unmarked) [Example 48, 3-(4-N,N-dimethylaminophenyl)-6,7-dihydro-3H,5H-pyrido[3,2,1-ij]quinazoline-1,7(2H)-dione] it is 198.7 to 202.6 °C.
The molecule `COc1ccc(C2NC(=O)c3cccc4c3N2CCC4=O)c(C)c1` (centres unmarked) [Example 49, 3-(2-methyl-4-methoxyphenyl)-6,7-dihydro-3H,5H-pyrido[3,2,1-ij]quinazoline-1,7(2H)-dione] returned a melting point of 100.2 to 101.1 °C.
The figure for `COc1ccc(C2NC(=O)c3cc(OC(F)(F)F)cc4c3N2CCC4=NO)cc1` (centres unmarked) [Example 50, 7-hydroxyimino-3-(4-methoxyphenyl)-9-trifluoromethoxy-6,7-dihydro-3H,5H-pyrido[3,2,1-ij]quinazoline-1(2H)-one] is 232.7 to 234.3 °C.
On to `CON=C1CCN2c3c(cc(F)cc31)C(=O)NC2c1ccc(OC)cc1` (centres unmarked) [Example 51, 9-fluoro-7-methoxyimino-3-(4-methoxyphenyl)-6,7-dihydro-3H,5H-pyrido[3,2,1-ij]quinazoline-1(2H)-one], for which the melting point was 200.1 to 202.9 °C.
For the molecule `COc1ccc(C2NC(=O)c3ccc(Cl)c4c3N2CCC4=NO)cc1` (centres unmarked) [Example 52, 8-chloro-7-hydroxyimino-3-(4-methoxyphenyl)-6,7-dihydro-3H,5H-pyrido[3,2,1-ij]quinazoline-1(2H)-one], the melting point is 132.9 to 133.4 °C.
The figure for `CON=C1CCN2c3c(cccc31)C(=O)NC2c1ccc(OCCCN(C)C)cc1` (centres unmarked) [Example 53, 7-methoxyimino-3-[4-(3-N,N-dimethylaminopropoxy)phenyl]-6,7-dihydro-3H,5H-pyrido[3,2,1-ij]quinazoline-1(2H)-one] is 164.3 to 167 °C.
The same measure for `CON=C1CCN2c3c(cccc31)C(=O)NC2c1ccc(OC)c(Br)c1` (centres unmarked) [Example 54, (3-bromo-4-methoxyphenyl)-7-methoxyimino-6,7-dihydro-3H,5H-pyrido[3,2,1-ij]quinazoline-1(2H)-one]: 218.7 to 221.7 °C.

Usually melting point stands for the temperature, or range, at which the solid turns liquid.
